{"source": "patent US10669227B2", "about": "(THE RESEARCH FOUNDATION OF STATE UNIVERSITY OF NEW YORK, priority 2009, dated 2020)", "key": {"[1]": {"target": "MMP-9 (92 kDa gelatinase) (Rattus norvegicus (Rat), UniProt P50282)", "assay": "Diabetic rat, plasma gelatinase by gelatin zymography (MMP-9)", "format": "in vivo", "details": "diabetic rats, 100 mg/kg oral once/day, 7 days"}, "[2]": {"tested_on": "MCP-1", "assay": "Inhibition of MCP-1 production by LPS-stimulated monocytes", "format": "cell-based, human", "experimental": "(§1) Briefly, human peripheral blood monocytes (HMs) were isolated from a leukocyte concentrate by density gradient centrifugation (Lymphoprep) and the isolated HMs cultured (2 h, 37° C.) to remove non-adherent cells. The adherent HMs wore cultured for 18 h (1×10^6 cells/well, 24-well plates)±endotoxin (LPS)±different compounds dissolved in DMSO (the final concentration of DMSO in the RPMI serum-free culture media with Pen./Strep. antibiotics was no greater than 0.5%). After incubation, the proinflammatory cytokines, TNFα, […], MCP-1 and IL-6 were measured in the conditioned media by ELISA and cytotoxicity was assessed by measuring the absorbance (490 nm) of formazan produced by reduction of MTS. The HMs alone±0.1-0.5% DMSO produced minimal levels of these pro-inflammatory cytokines. However, addition of 100 ng/ml or 10 μg/ml of LPS both dramatically stimulated cytokine production.\n(§2) The cytokine levels were measured by Luminex multiplex, a method that allows the simultaneous measurement of different biological markers."}, "[3]": {"target": "MMP-9 (human leukocyte gelatinase) (Homo sapiens (Human), UniProt P14780)", "sequence (P14780 94-707)": "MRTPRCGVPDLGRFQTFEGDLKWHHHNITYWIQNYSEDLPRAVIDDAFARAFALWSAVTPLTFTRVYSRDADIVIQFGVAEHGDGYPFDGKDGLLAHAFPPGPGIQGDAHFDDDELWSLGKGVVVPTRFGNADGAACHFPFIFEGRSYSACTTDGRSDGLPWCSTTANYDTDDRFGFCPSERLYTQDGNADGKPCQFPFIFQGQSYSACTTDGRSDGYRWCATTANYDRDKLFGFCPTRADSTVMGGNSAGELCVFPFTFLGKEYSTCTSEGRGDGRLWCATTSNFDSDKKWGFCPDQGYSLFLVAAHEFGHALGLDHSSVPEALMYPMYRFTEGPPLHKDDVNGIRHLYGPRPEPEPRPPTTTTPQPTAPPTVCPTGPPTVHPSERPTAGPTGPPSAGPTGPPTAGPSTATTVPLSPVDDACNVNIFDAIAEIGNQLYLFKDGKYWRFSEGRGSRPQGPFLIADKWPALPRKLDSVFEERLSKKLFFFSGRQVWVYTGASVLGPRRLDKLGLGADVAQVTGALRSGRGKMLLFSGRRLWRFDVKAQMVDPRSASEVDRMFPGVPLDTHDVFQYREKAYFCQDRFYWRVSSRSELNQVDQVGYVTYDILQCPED", "assay": "MMP-9 inhibition in vitro, octapeptide substrate, HPLC", "format": "biochemical", "details": "read-out: Maximum Inhibition At 100 μM compound (MMP-9)", "from_the_text": "In contrast all three chemically-modified curcumins at 100 μm final concentration inhibited gelatinase activity by 68-100% (FIG. 6 and Table 6)."}, "[4]": {"target": "MMP-9 (Rattus norvegicus (Rat), UniProt P50282)", "assay": "Diabetic rat, gingiva gelatinase by gelatin zymography (MMP-9)", "format": "in vivo", "details": "diabetic rats, 100 and 500 mg/kg oral daily, 3 weeks", "experimental": "(§3) At the end of the treatment protocol, the rats were sacrificed, blood samples were collected, and whole skin (except over limbs) and qingiva were dissected (the skin, because of ample quantities of tissue were analyzed for each rat separately; the gingiva, because of the tiny amounts that could be harvested per rat, were pooled for each experimental group, as prescribed previously for tetracycline studies (30). In addition, the jaw bones were collected, defleshed, and bone loss around the teeth analyzed morphometrically as described previously (42, 43).\nThis appearance of MMP-9 only in the gingiva (FIG. 10), but not the skin (FIG. 12), of the diabetic rats is likely the result of the oral bacteria inducing inflammation in the gingiva of these immune-suppressed UD rats, whereas the skin is not exposed to this onslaught of bacteria particularly the anaerobic gram-negative bacteria in the mouth that cause periodontal and gingival inflammation."}, "[5]": {"target": "MMP-2 (72 kDa gelatinase) (Rattus norvegicus (Rat), UniProt P33436)", "assay": "Diabetic rat, plasma gelatinase by gelatin zymography (MMP-2)", "format": "in vivo", "details": "diabetic rats, 100 mg/kg oral once/day, 7 days"}, "[6]": {"assay": "Type I diabetic rat model, 1-week oral treatment: glucose, adverse events, serum level", "format": "in vivo", "details": "diabetic rats", "from_the_text": "The purpose of the following was to establish an in vivo model of excessive collagen degradation to be used to test efficacy of the compounds of the subject invention. Male Sprague-Dawley rats (typically 300-400 gms of body weight), specific viral antibody free, were ordered from Charles River. Following general anesthesia via isoflurane anesthetic inhalation, diabetes was induced by an I.V. administration of streptozotocin (STZ) (50*mg/kg body weight) (Sigma Chemical Co., St Louis, Mo., USA) diluted in 0.9% citrated saline (pH 4.5), after 12 hours of fasting. After the streptozotocin injection, the animals were given free access to water and food. […] In this test, the test-paper color changes to dark brown which indicates glycosuria.\n(§4) The latter assays were carried out using Western blot analysis with monoclonal antibodies to MMP-8."}, "[7]": {"tested_on": "human monocytes", "assay": "Cytotoxicity in human monocytes (MTS)", "format": "cell-based", "experimental": "as §1, with “The adherent HMs wore cultured for 18 h (1×10^6 cells/well, 24-well plates)±endotoxin (LPS)±different compounds dissolved in DMSO (the final concentration of DMSO in the RPMI serum-free culture media with Pen./Strep. antibiotics was no greater than 0.5%).” left out"}, "[8]": {"tested_on": "IL-6", "assay": "Inhibition of IL-6 production by LPS-stimulated monocytes", "format": "cell-based", "details": "Homo sapiens, Monocyte, 18 h, read-out: % Inhibition of IL-6 produced by stimulated Monocytes with LPS @ 18 h", "experimental": "as §1"}, "[9]": {"target": "MMP-13 (Collagenase-3) (Homo sapiens (Human), UniProt P45452)", "assay": "MMP-13 inhibition in vitro, octapeptide substrate, HPLC", "format": "biochemical", "details": "read-out: MMP-13 Maximum Inhibition @100 μM"}, "[10]": {"target": "IL-1β (Rattus norvegicus (Rat), UniProt Q63264)", "assay": "Diabetic rat, IL-1β in gingiva extracts by ELISA", "format": "in vivo", "details": "3 weeks", "experimental": "as §3"}, "[11]": {"target": "collagenase-2 (MMP-8) (Rattus norvegicus (Rat), UniProt O88766)", "assay": "Diabetic rat, MMP-8 in skin extracts by Western blot", "format": "in vivo", "details": "diabetic rats, 100 mg/kg oral once/day, 7 days", "experimental": "as §4"}, "[12]": {"tested_on": "caspase-3 activity", "assay": "Doxorubicin mediated caspase-3 activity", "format": "cell-based, rat", "details": "10 μM, doxorubicin 500 nM, any time point", "experimental": "Neonatal rat ventricular myocytes, serum starved for 24 h, were treated with the inhibitors 1 h prior to the addition of 500 nM of doxorubicin (Sigma). At the indicated time points cells were washed with ice-cold phosphate buffered saline and lysed using RIPA buffer (Pierce) containing protease and phosphatase inhibitors (Sigma). Caspase-3 activity in the cell lysates was measured by incubation with 7-amino-4-trifluoromethyl coumarin (Enzo)."}, "[13]": {"tested_on": "VEGF", "assay": "VEGF level in LPS-challenged human monocytes, Luminex multiplex", "format": "cell-based", "details": "2 μM, FIG. 2", "experimental": "as §2"}, "[14]": {"assay": "Type I diabetic rat model, 3-week oral treatment: blood glucose and hemoglobin A1c", "format": "in vivo", "details": "diabetic rats, 100 and 500 mg/kg oral daily, 3 weeks", "experimental": "as §3"}, "[15]": {"tested_on": "TNF-α", "assay": "Inhibition of TNF-α production by LPS-stimulated monocytes", "format": "cell-based, human", "experimental": "as §1, §2"}}}
{"smiles": "COC(=O)C(C(=O)/C=C/c1ccc(O)c(OC)c1)C(=O)/C=C/c1ccc(O)c(OC)c1", "note": "[Compound 1, 1,7-Bis(4-hydroxy-3-methoxyphenyl)-4-methoxycarbonylhepta-1E,6E-dien-3,5-dione]", "values": [{"measurement": "Plasma MMP-9 level", "setting": "[1]", "value": "reduced the excessive levels of MMPs to essentially normal levels"}, {"measurement": "MCP-1 level in LPS-challenged human monocytes, Luminex multiplex", "setting": "[2]; 2 μM, FIG. 2", "value": "potent in reducing"}, {"measurement": "inhibition at 2 µM", "setting": "[2]; Homo sapiens, Monocyte, 18 h, 2 uM, read-out: % Inhibition of MCP-1 produced by stimulated Monocytes with LPS @ 18 h", "value": 74, "unit": "%"}, {"measurement": "inhibition at 25 µM", "setting": "[2]; Homo sapiens, Monocyte, 18 h, 25 uM, read-out: % Inhibition of MCP-1 produced by stimulated Monocytes with LPS @ 18 h", "value": 78, "unit": "%"}, {"measurement": "inhibition at 50 µM", "setting": "[2]; Homo sapiens, Monocyte, 18 h, 50 uM, read-out: % Inhibition of MCP-1 produced by stimulated Monocytes with LPS @ 18 h", "value": 79, "unit": "%"}, {"measurement": "inhibition at 100 µM", "setting": "[3]", "value": 72, "unit": "%"}, {"measurement": "MMP-9 level in gingiva", "setting": "[4]", "value": "reduced MMP-9 to the undetectable levels"}, {"measurement": "Plasma MMP-2 level", "setting": "[5]", "value": "reduced the excessive levels of MMPs to essentially normal levels"}, {"measurement": "Severity of hyperglycemia (serum glucose)", "setting": "[6]; 100 mg/kg oral once/day, 7 days", "value": "no effect on the severity of hyperglycemia"}, {"measurement": "Description of AEs", "setting": "[6]; n = 6, 1 week oral treatment", "value": "Minor inflamed"}, {"measurement": "Incidence of Adverse Events (AEs)", "setting": "[6]; n = 6, 1 week oral treatment", "value": "1/6"}, {"measurement": "concentration at 7 days", "setting": "[6]; male, Sprague-Dawley, rat, serum, 100 mg/kg, 1 week oral treatment, FIG. 7", "value": "~100", "unit": "ng/mL"}, {"measurement": "Cytotoxicity Monocytes @ 5 h incubation", "setting": "[7]; 2 uM", "value": 2, "unit": "uM - 0%"}, {"measurement": "Cytotoxicity Monocytes @ 5 h incubation", "setting": "[7]; 10 uM", "value": 10, "unit": "uM - 0%"}, {"measurement": "Cytotoxicity Monocytes @ 5 h incubation", "setting": "[7]; 25 uM", "value": 25, "unit": "uM - 33%"}, {"measurement": "Cytotoxicity Monocytes @ 18 h incubation", "setting": "[7]; 25 uM", "value": 25, "unit": "uM - 45.5%"}, {"measurement": "Cytotoxicity Monocytes @ 18 h incubation", "setting": "[7]; 50 uM", "value": 50, "unit": "uM - 53%"}, {"measurement": "inhibition at 2 µM", "setting": "[8]; 2 uM", "value": 30, "unit": "%"}, {"measurement": "inhibition at 25 µM", "setting": "[8]; 25 uM", "value": 100, "unit": "%"}, {"measurement": "inhibition at 50 µM", "setting": "[8]; 50 uM", "value": 100, "unit": "%"}, {"measurement": "inhibition at 100 µM", "setting": "[9]", "value": 69, "unit": "%"}, {"measurement": "Reduction of IL-1β in gingiva vs untreated diabetic", "setting": "[10]; higher oral dose (500 mg/kg)", "value": 95, "unit": "%"}, {"measurement": "Reduction of IL-1β in gingiva vs untreated diabetic", "setting": "[10]; lower dose (100 mg/kg)", "value": "about 18%"}, {"measurement": "MMP-8 level in skin extracts", "setting": "[11]", "value": "A similar pattern was observed"}, {"measurement": "Effect on doxorubicin mediated caspase-3 activity", "setting": "[12]", "value": "None of the MMP inhibitors, including compound 1, negatively modulate caspase-3 activity"}, {"measurement": "VEGF level in LPS-challenged human monocytes, Luminex multiplex", "setting": "[13]", "value": "potent in reducing"}, {"measurement": "Blood glucose", "setting": "[14]", "value": "no significant effect"}, {"measurement": "Hemoglobin A1c level", "setting": "[14]", "value": "no significant effect"}, {"measurement": "TNFα level in LPS-challenged human monocytes, Luminex multiplex", "setting": "[15]; 2 μM, FIG. 2", "value": "potent in reducing"}, {"measurement": "inhibition at 2 µM", "setting": "[15]; Homo sapiens, Monocyte, 18 h, 2 uM, read-out: % Inhibition of TNF-α produced by stimulated Monocytes with LPS @ 18 h", "value": 63, "unit": "%"}, {"measurement": "inhibition at 25 µM", "setting": "[15]; Homo sapiens, Monocyte, 18 h, 25 uM, read-out: % Inhibition of TNF-α produced by stimulated Monocytes with LPS @ 18 h", "value": 100, "unit": "%"}, {"measurement": "inhibition at 50 µM", "setting": "[15]; Homo sapiens, Monocyte, 18 h, 50 uM, read-out: % Inhibition of TNF-α produced by stimulated Monocytes with LPS @ 18 h", "value": 100, "unit": "%"}]}
